Here are results for five molecules from patent publication US20200039918A1, “METHOD FOR PREPARING SINGLE CRYSTAL OF ANHYDROUS HALOGENATED CHOLINE OR DERIVATIVE THEREOF” (HEBEI UNIVERSITY OF SCIENCE AND TECHNOLOGY, priority 2017, published 2020).

Data set [1] in a line: water absorption and agglomeration after being placed in the air for 24 hours. In kind it is physicochemical.
For data set [2] the following is noted: TG. The procedure:
The crystal structure and thermal stability of anhydrous choline chloride single crystal product obtained in Experiment example 1 were analyzed, respectively.

As for `CC(=O)OCC[N+](C)(C)C.[Cl-]` [acetylcholine chloride], in data set [1], the agglomeration entry was “not agglomerated” and the water absorption amount worked out at 1.58 wt %.

Consider `C[N+](C)(C)CCO.[I-]` [anhydrous choline iodide single crystal, choline iodide], for which, in data set [1], the agglomeration result was “not agglomerated” and the water absorption amount was 2.30 wt %.

For the molecule `C[N+](C)(C)CCO.[Cl-]` [choline chloride], in data set [1], the agglomeration result is reported as “not agglomerated” and the water absorption amount is 2.58 wt %. In data set [2] (FIG. 5), the “initial temperature of thermal cracking” value came out at 350 °C and the “temperature at which the weight loss rate reaches the maximum” value amounted to 370 °C. For the same molecule, the “thermal stability (comparison in words)” value in data set [2] (versus commercial product) is listed as “better than that of commercial choline chloride”. In data set [2] (weight loss ascribed to evaporation of water), the “temperature at which weight loss began” value is 330 °C.

For `CCC(=O)OCC[N+](C)(C)C.[Br-]` [propionylcholine bromide], in data set [1], the agglomeration result is “not agglomerated” and the water absorption amount is listed as 0.77 wt %.

With `CCC(=O)OCC[N+](C)(C)C.[Cl-]` [propionylcholine chloride], in data set [1], the agglomeration result is “not agglomerated” and the water absorption amount came out at 1.06 wt %.
